# Reference: ChEMBL document CHEMBL1151905, “Discovery of 5-substituted 2-amino-4-chloro-8-((4-methoxy-3,5-dimethylpyridin-2-yl)methyl)-7,8-dihydropteridin-6(5H)-ones as potent and selective Hsp90 inhibitors” (Bioorg Med Chem Lett, 2009)
# pIC50: −log10 of the molar value.
# Biological target: Heat shock protein HSP90 (Homo sapiens, UniProt P07900+P08238)
# Assay: Inhibition of HSP90 in human SKBR3 cells assessed as induction of Her2 degradation
# Type: cell-based
# Conditions: sk-br-3
row,Structure (SMILES),IC50
1,COc1c(C)cnc(CN2c3nc(N)nc(Cl)c3N(CC(C)C)C(=O)[C@@H]2C)c1C,> 5 µM
2,COc1c(C)cnc(CN2CC(=O)N(C(=O)NCCN3CCOCC3)c3c(Cl)nc(N)nc32)c1C,> 10 µM
3,COc1ccnc(CN2CC(=O)N(CC(C)C)c3c(Cl)nc(N)nc32)c1OC,0.16 µM
4,COc1c(C)cnc(CN2c3nc(N)nc(Cl)c3N(CC(C)C)C(=O)[C@@H]2C(C)C)c1C,> 5 µM
5,COc1c(C)cnc(Cn2c(=O)c(=O)[nH]c3c(Cl)nc(N)nc32)c1C,> 5 µM
6,Cc1cnc(CN2CC(=O)N(CC(C)C)c3c(Cl)nc(N)nc32)c(C)c1Cl,0.59 µM
7,COc1c(C)cnc(CN2CC(=O)N(CC(C)C)c3c(C)nc(N)nc32)c1C,0.98 µM
8,COc1c(C)cnc(CN2CC(=O)N(CCCN3CCOCC3)c3c(Cl)nc(N)nc32)c1C,1.55 µM
9,COc1c(C)cnc(CN2c3nc(N)nc(Cl)c3NC(=O)[C@@H]2CC(C)C)c1C,0.37 µM
10,COc1nc(CN2CC(=O)N(CC(C)C)c3c(Cl)nc(N)nc32)c(Cl)c(OC)c1OC,> 5 µM
11,COc1c(C)cnc(CN2CC(OC3CCCC3)=Nc3c(Cl)nc(N)nc32)c1C,0.01 µM
12,COc1c(C)cnc(CN2CC(=O)N(C(C)C(=O)NCCN(C)C)c3c(Cl)nc(N)nc32)c1C (stereo unspecified),0.1 µM
13,COc1c(C)cnc(CN2c3nc(N)nc(Cl)c3NC(=O)[C@@H]2C)c1C,0.43 µM
14,COc1c(C)cnc(Cn2c(=O)cnc3c(Cl)nc(N)nc32)c1C,> 10 µM

# Tested on: MCF7
# Assay: Growth inhibition of human MCF7 cells
# Type: functional, cell-based
# Conditions: not given
row,Structure (SMILES),pIC50
1,COc1c(C)cnc(CN2CC(=O)N(C(=O)NCCN3CCOCC3)c3c(Cl)nc(N)nc32)c1C,5.67
2,COc1ccnc(CN2CC(=O)N(CC(C)C)c3c(Cl)nc(N)nc32)c1OC,7.00
3,Cc1cnc(CN2CC(=O)N(CC(C)C)c3c(Cl)nc(N)nc32)c(C)c1Cl,6.33
4,COc1c(C)cnc(CN2CC(=O)N(CCCN3CCOCC3)c3c(Cl)nc(N)nc32)c1C,5.59
5,COc1c(C)cnc(CN2c3nc(N)nc(Cl)c3NC(=O)[C@@H]2CC(C)C)c1C,6.03
6,COc1c(C)cnc(CN2CC(OC3CCCC3)=Nc3c(Cl)nc(N)nc32)c1C,7.40
7,COc1c(C)cnc(CN2CC(=O)N(C(C)C(=O)NCCN(C)C)c3c(Cl)nc(N)nc32)c1C (stereo unspecified),6.92
8,COc1c(C)cnc(CN2c3nc(N)nc(Cl)c3NC(=O)[C@@H]2C)c1C,6.03

# Tested on: HT-29
# Assay: Growth inhibition of human HT-29 cells
# Type: functional, cell-based
# Conditions: not given
row,Structure (SMILES),pIC50
1,COc1c(C)cnc(CN2CC(=O)N(C(=O)NCCN3CCOCC3)c3c(Cl)nc(N)nc32)c1C,5.92
2,COc1ccnc(CN2CC(=O)N(CC(C)C)c3c(Cl)nc(N)nc32)c1OC,7.40
3,Cc1cnc(CN2CC(=O)N(CC(C)C)c3c(Cl)nc(N)nc32)c(C)c1Cl,6.55
4,COc1c(C)cnc(CN2CC(=O)N(CCCN3CCOCC3)c3c(Cl)nc(N)nc32)c1C,5.53
5,COc1c(C)cnc(CN2c3nc(N)nc(Cl)c3NC(=O)[C@@H]2CC(C)C)c1C,6.16
6,COc1c(C)cnc(CN2CC(OC3CCCC3)=Nc3c(Cl)nc(N)nc32)c1C,7.70
7,COc1c(C)cnc(CN2CC(=O)N(C(C)C(=O)NCCN(C)C)c3c(Cl)nc(N)nc32)c1C (stereo unspecified),7.00
8,COc1c(C)cnc(CN2c3nc(N)nc(Cl)c3NC(=O)[C@@H]2C)c1C,6.18

# Tested on: SK-BR-3
# Assay: Growth inhibition of human SKBR3 cells
# Type: functional, cell-based
# Conditions: not given
row,Structure (SMILES),pIC50
1,COc1c(C)cnc(CN2CC(=O)N(C(=O)NCCN3CCOCC3)c3c(Cl)nc(N)nc32)c1C,< 5.30
2,COc1ccnc(CN2CC(=O)N(CC(C)C)c3c(Cl)nc(N)nc32)c1OC,8.00
3,Cc1cnc(CN2CC(=O)N(CC(C)C)c3c(Cl)nc(N)nc32)c(C)c1Cl,6.96
4,COc1c(C)cnc(CN2CC(=O)N(CCCN3CCOCC3)c3c(Cl)nc(N)nc32)c1C,5.95
5,COc1c(C)cnc(CN2c3nc(N)nc(Cl)c3NC(=O)[C@@H]2CC(C)C)c1C,6.64
6,COc1c(C)cnc(CN2CC(OC3CCCC3)=Nc3c(Cl)nc(N)nc32)c1C,8.30
7,COc1c(C)cnc(CN2CC(=O)N(C(C)C(=O)NCCN(C)C)c3c(Cl)nc(N)nc32)c1C (stereo unspecified),7.52
8,COc1c(C)cnc(CN2c3nc(N)nc(Cl)c3NC(=O)[C@@H]2C)c1C,6.60

# Tested on: BT-474
# Assay: Growth inhibition of human BT474 cells
# Type: functional, cell-based
# Conditions: not given
row,Structure (SMILES),pIC50
1,COc1c(C)cnc(CN2CC(=O)N(C(=O)NCCN3CCOCC3)c3c(Cl)nc(N)nc32)c1C,< 4.00
2,COc1ccnc(CN2CC(=O)N(CC(C)C)c3c(Cl)nc(N)nc32)c1OC,7.52
3,Cc1cnc(CN2CC(=O)N(CC(C)C)c3c(Cl)nc(N)nc32)c(C)c1Cl,6.62
4,COc1c(C)cnc(CN2CC(=O)N(CCCN3CCOCC3)c3c(Cl)nc(N)nc32)c1C,5.74
5,COc1c(C)cnc(CN2c3nc(N)nc(Cl)c3NC(=O)[C@@H]2CC(C)C)c1C,6.31
6,COc1c(C)cnc(CN2CC(OC3CCCC3)=Nc3c(Cl)nc(N)nc32)c1C,8.00
7,COc1c(C)cnc(CN2CC(=O)N(C(C)C(=O)NCCN(C)C)c3c(Cl)nc(N)nc32)c1C (stereo unspecified),7.22
8,COc1c(C)cnc(CN2c3nc(N)nc(Cl)c3NC(=O)[C@@H]2C)c1C,6.33

# Tested on: HMEC
# Assay: Growth inhibition of HMEC cells
# Type: cell-based
# Conditions: Homo sapiens
row,Structure (SMILES),pIC50
1,COc1ccnc(CN2CC(=O)N(CC(C)C)c3c(Cl)nc(N)nc32)c1OC,6.62

# Tested on: HMEC
# Assay: Selectivity index, ratio of IC50 for HMEC cells to IC50 for human SKBR3 cells
# Type: functional
# Conditions: not given
row,Structure (SMILES),Ratio IC50
1,COc1ccnc(CN2CC(=O)N(CC(C)C)c3c(Cl)nc(N)nc32)c1OC,6

# Tested on: HMEC
# Assay: Selectivity index, ratio of IC50 for HMEC cells to IC50 for human BT474 cells
# Type: functional
# Conditions: not given
row,Structure (SMILES),Ratio IC50
1,COc1ccnc(CN2CC(=O)N(CC(C)C)c3c(Cl)nc(N)nc32)c1OC,6

# Tested on: MCF7
# Assay: Selectivity index, ratio of IC50 for HMEC cells to IC50 for human MCF7 cells
# Type: functional
# Conditions: not given
row,Structure (SMILES),Ratio IC50
1,COc1ccnc(CN2CC(=O)N(CC(C)C)c3c(Cl)nc(N)nc32)c1OC,2

# Tested on: HT-29
# Assay: Selectivity index, ratio of IC50 for HMEC cells to IC50 for human HT-29 cells
# Type: functional
# Conditions: not given
row,Structure (SMILES),Ratio IC50
1,COc1ccnc(CN2CC(=O)N(CC(C)C)c3c(Cl)nc(N)nc32)c1OC,6
